These results are taken from patent US12161722B2, “Bifunctional heterocyclic compound having BTK degradation function via ubiquitin proteasome pathway, and use thereof” (KOREA RESEARCH INSTITUTE OF CHEMICAL TECHNOLOGY, priority 2021, dated 2024).

SMILES strings stand for the structures.

The target of the assay is T1, WT BTK protein (Homo sapiens, UniProt Q06187).
T1 construct: measured for intracellular BTK protein levels by Western blotting; endogenous in cells; host or cells: TMD-8 or RAMOS cells
Nature of the assay: BTK protein degradation assay (Western blotting), WT BTK. Type of assay: cell-based. Conditions: concentration range accounting for 50% degradation of WT BTK protein, TMD-8 or RAMOS cells, 24 hours. The procedure, abridged: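 TMD-8 cells (1×10^6 cells/mL) treated 24 h with compound serial dilutions, then lysed in RIPA. Equal protein loads analysed by Western blot for BTK with GAPDH/β-actin as loading controls; activity binned by concentration giving 50% WT BTK degradation.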
A general note: Immunoblotting shows a protein as a band on a membrane.

T1 sequence (Q06187 whole entry): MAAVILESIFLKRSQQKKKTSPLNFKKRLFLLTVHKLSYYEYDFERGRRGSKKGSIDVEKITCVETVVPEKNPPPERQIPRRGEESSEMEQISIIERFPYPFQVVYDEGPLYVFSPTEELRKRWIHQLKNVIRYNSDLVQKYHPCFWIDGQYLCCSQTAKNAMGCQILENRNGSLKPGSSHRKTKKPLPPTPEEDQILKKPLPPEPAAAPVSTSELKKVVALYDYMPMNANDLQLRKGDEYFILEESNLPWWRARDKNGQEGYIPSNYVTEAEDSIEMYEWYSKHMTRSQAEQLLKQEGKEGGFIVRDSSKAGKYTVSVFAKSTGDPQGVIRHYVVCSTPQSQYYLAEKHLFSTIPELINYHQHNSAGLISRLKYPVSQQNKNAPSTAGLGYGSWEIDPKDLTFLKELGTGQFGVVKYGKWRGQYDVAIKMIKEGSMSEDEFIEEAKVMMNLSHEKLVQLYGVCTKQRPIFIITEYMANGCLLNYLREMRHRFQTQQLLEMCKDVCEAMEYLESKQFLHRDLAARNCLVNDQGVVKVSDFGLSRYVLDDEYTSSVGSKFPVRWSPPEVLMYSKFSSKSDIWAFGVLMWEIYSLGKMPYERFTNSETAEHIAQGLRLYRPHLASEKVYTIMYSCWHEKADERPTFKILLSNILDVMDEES

As for `Cc1cccc(C)c1Nc1nn(C)c2nc(Nc3ccc4c(c3)CN(CC3CCN(C(=O)CNc5cc6c(cc5F)C(=O)N(C5CCC(=O)NC5=O)C6=O)CC3)CC4)ncc12` (stereo not shown) [Compound 211, 5-((2-(4-((7-((3-((2,6-Dimethylphenyl)amino)-1-methyl-1H-pyrazolo[3,4-d]pyrimidin-6-yl)amino)-3,4-dihydroisoquinolin-2 (1H)-yl)methyl)piperidin-1-yl)-2-oxoethyl)amino)-2-(2,6-dioxopiperidin-3-yl)-6-fluoroisoindoline-1,3-dione], the DC50 (in general, the concentration at which degradation of the target reaches its halfway point) is 0.1 to 10 nM.

Consider `Cn1nc(Nc2c(Br)cccc2Br)c2cnc(Nc3ccc4c(c3)CN(CC3CCN(c5ccc6c(c5)C(=O)N(C5CCC(=O)NC5=O)C6=O)CC3)CC4)nc21` (stereo not shown) [Compound 217, 5-(4-((7-((3-((2,6-Dibromophenyl)amino)-1-methyl-1H-pyrazolo[3,4-d]pyrimidin-6-yl)amino)-3,4-dihydroisoquinolin-2 (1H)-yl)methyl)piperidin-1-yl)-2-(2,6-dioxopiperidin-3-yl)isoindoline-1,3-dione], for which the DC50 was in the range of 0.1 to 10 nM.

Consider `Cn1nc(Nc2c(Cl)cccc2Br)c2cnc(Nc3ccc4c(c3)CN(CC3CCN(c5ccc6c(c5)C(=O)N(C5CCC(=O)NC5=O)C6=O)CC3)CC4)nc21` (stereo not shown) [Compound 218, 5-(4-((7-((3-((2-Bromo-6-chlorophenyl)amino)-1-methyl-1H-pyrazolo[3,4-d]pyrimidin-6-yl)amino)-3,4-dihydroisoquinolin-2 (1H)-yl)methyl)piperidin-1-yl)-2-(2,6-dioxopiperidin-3-yl)isoindoline-1,3-dione], for which the half-maximal degradation concentration (DC50) was in the range of 0.1 to 10 nM.

In the case of `Cn1nc(Nc2c(Cl)cccc2I)c2cnc(Nc3ccc4c(c3)CN(CC3CCN(c5ccc6c(c5)C(=O)N(C5CCC(=O)NC5=O)C6=O)CC3)CC4)nc21` (stereo not shown) [Compound 219, 5-(4-((7-((3-((2-chloro-6-iodophenyl)amino)-1-methyl-1H-pyrazolo[3,4-d]pyrimidin-6-yl)amino)-3,4-dihydroisoquinolin-2 (1H)-yl)methyl)piperidin-1-yl)-2-(2,6-dioxopiperidin-3-yl)isoindoline-1,3-dione], the half-maximal degradation concentration (DC50) was in the range of 0.1 to 10 nM.

With `Cc1cccc(C)c1Nc1nn(C)c2nc(Nc3ccc4c(c3)CN(CC3CCN(c5cc6c(cc5F)C(=O)N(C5CCC(=O)NC5=O)C6)CC3)CC4)ncc12` (stereo not shown) [Compound 220, 3-(5-(4-((7-((3-((2,6-Dimethylphenyl)amino)-1-methyl-1H-pyrazolo[3,4-d]pyrimidin-6-yl)amino)-3,4-dihydroisoquinolin-2 (1H)-yl)methyl)piperidin-1-yl)-6-fluoro-1-oxoisoindolin-2-yl)piperidin-2,6-one], the half-maximal degradation concentration (DC50) lay within 0.1 to 10 nM.

For `Cc1cc(F)cc(C)c1Nc1nn(C)c2nc(Nc3ccc4c(c3)CN(CC3CCN(c5ccc6c(c5)C(=O)N(C5CCC(=O)NC5=O)C6=O)CC3)CC4)ncc12` (stereo not shown) [Compound 221, 2-(2,6-dioxopiperidin-3-yl)-5-(4-((7-((3-((4-fluoro-2,6-dimethylphenyl)amino)-1-methyl-1H-pyrazolo[3,4-d]pyrimidin-6-yl)amino)-3,4-dihydroisoquinolin-2 (1H)-yl)methyl)piperidin-1-yl)isoindoline-1,3-dione], the half-maximal degradation concentration (DC50) lay in the range of 0.1 to 10 nM.

For the compound `Cc1cccc(C)c1Nc1nn(C)c2nc(Nc3ccc(C4CCN(C(=O)CC5CCN(c6ccc7c(c6)C(=O)N(C6CCC(=O)NC6=O)C7=O)CC5)CC4)cc3)ncc12` (stereo not shown) [Compound 222, 5-(4-(2-(4-(4-((3-((2,6-Dimethylphenyl)amino)-1-methyl-1H-pyrazolo[3,4-d]pyrimidin-6-yl)amino)phenyl)piperidin-1-yl)-2-oxoethyl)piperidin-1-yl)-2-(2,6-dioxopiperidin-3-yl)isoindoline-1,3-dione], the DC50 fell in the range of 0.1 to 10 nM.

`Cc1cccc(C)c1Nc1nn(C)c2nc(Nc3ccc(C4CCN(C(=O)CN5CCN(c6ccc7c(c6)C(=O)N(C6CCC(=O)NC6=O)C7=O)CC5)CC4)cc3)ncc12` (stereo not shown) [Compound 225, 5-(4-(2-(4-(4-((3-((2,6-dimethylphenyl)amino)-1-methyl-1H-pyrazolo[3,4-d]pyrimidin-6-yl)amino)phenyl)piperidin-1-yl)-2-oxoethyl)piperazin-1-yl)-2-(2,6-dioxopiperidin-3-yl)isoindoline-1,3-dione]: the DC50 lay within 0.1 to 10 nM.

As to `Cc1cccc(C)c1Nc1nn(C)c2nc(Nc3ccc(C4CCN(C(=O)CN5CCN(c6ccc7c(c6)C(=O)N(C6CCC(=O)NC6=O)C7=O)CC5)CC4)c(F)c3)ncc12` (stereo not shown) [Compound 226, 5-(4-(2-(4-(4-((3-((2,6-Dimethylphenyl)amino)-1-methyl-1H-pyrazolo[3,4-d]pyrimidin-6-yl)amino)-2-fluorophenyl)piperidin-1-yl)-2-oxoethyl)piperazin-1-yl)-2-(2,6-dioxopiperidin-3-yl)isoindoline-1,3-dione], the DC50 lay within 0.1 to 10 nM.

As for `Cc1cccc(C)c1Nc1nn(C)c2nc(Nc3ccc(C4CCN(C(=O)CC5CCN(c6ccc7c(c6)C(=O)N(C6CCC(=O)NC6=O)C7=O)CC5)CC4)c(F)c3)ncc12` (stereo not shown) [Compound 227, 5-(4-(2-(4-(4-((3-((2,6-dimethylphenyl)amino)-1-methyl-1H-pyrazolo[3,4-d]pyrimidin-6-yl)amino)-2-fluorophenyl)piperidin-1-yl)-2-oxoethyl)piperidin-1-yl)-2-(2,6-dioxopiperidin-3-yl)isoindoline-1,3-dione], the DC50 lay within 0.1 to 10 nM.

With `Cc1cccc(C)c1Nc1nn(C)c2nc(Nc3ccc(C4CCN(C(=O)C5CN(c6ccc7c(c6)C(=O)N(C6CCC(=O)NC6=O)C7=O)C5)CC4)cc3)ncc12` (stereo not shown) [Compound 228, 5-(3-(4-(4-((3-((2,6-dimethylphenyl)amino)-1-methyl-1H-pyrazolo[3,4-d]pyrimidin-6-yl)amino)phenyl)piperidine-1-carbonyl)azetidin-1-yl)-2-(2,6-dioxopiperidin-3-yl)isoindoline-1,3-dione], the half-maximal degradation concentration (DC50) fell in the range of 0.1 to 10 nM.

For `Cc1cccc(C)c1Nc1nn(C)c2nc(Nc3ccc(C4CCN(C(=O)C5CN(c6ccc7c(c6)C(=O)N(C6CCC(=O)NC6=O)C7=O)C5)CC4)c(F)c3)ncc12` (stereo not shown) [Compound 229, 5-(3-(4-(4-((3-((2,6-dimethylphenyl)amino)-1-methyl-1H-pyrazolo[3,4-d]pyrimidin-6-yl)amino)-2-fluorophenyl)piperidine-1-carbonyl)azetidin-1-yl)-2-(2,6-dioxopiperidin-3-yl)isoindoline-1,3-dione], the DC50 was in the range of 10 to 1000 nM.

On to `Cc1cccc(C)c1Nc1nn(C)c2nc(Nc3ccc(C4=CCN(CC5CCN(c6ccc7c(c6)C(=O)N(C6CCC(=O)NC6=O)C7=O)CC5)CC4)cc3)ncc12` (stereo not shown) [Compound 230, 5-(4-((4-(4-((3-((2,6-Dimethylphenyl)amino)-1-methyl-1H-pyrazolo[3,4-d]pyrimidin-6-yl)amino)phenyl)-3,6-dihydropyridin-1 (2H)-yl)methyl)piperidin-1-yl)-2-(2,6-dioxopiperidin-3-yl)isoindoline-1,3-dione], for which the DC50 is 0.1 to 10 nM.

With `Cc1cccc(C)c1Nc1nn(C)c2nc(Nc3ccc(C4CCN(CC5CCN(c6ccc7c(c6)C(=O)N(C6CCC(=O)NC6=O)C7=O)CC5)CC4)cc3F)ncc12` (stereo not shown) [Compound 231, 5-(4-((4-(4-((3-((2,6-Dimethylphenyl)amino)-1-methyl-1H-pyrazolo[3,4-d]pyrimidin-6-yl)amino)-3-fluorophenyl)piperidin-1-yl)methyl)piperidin-1-yl)-2-(2,6-dioxopiperidin-3-yl)isoindoline-1,3-dione], the half-maximal degradation concentration (DC50) was 10 to 1000 nM.

Consider `Cc1cccc(C)c1Nc1nn(C)c2nc(Nc3ccc4c(c3)CN(C(=S)C3CCN(c5ccc6c(c5)C(=O)N(C5CCC(=O)NC5=O)C6=O)CC3)CC4)ncc12` (stereo not shown) [Compound 232, 5-(4-(7-((3-((2,6-dimethylphenyl)amino)-1-methyl-1H-pyrazolo[3,4-d]pyrimidin-6-yl)amino)-1,2,3,4-tetrahydroisoquinoline-2-carbonothioyl)piperidin-1-yl)-2-(2,6-dioxopiperidin-3-yl)isoindoline-1,3-dione], for which the DC50 was 0.1 to 10 nM.

With `Cc1cccc(C)c1Nc1nn(C)c2nc(Nc3ccc4c(c3)CN(C(=S)C3CCN(c5cc6c(cc5F)C(=O)N(C5CCC(=O)NC5=O)C6=O)CC3)CC4)ncc12` (stereo not shown) [Compound 233, 5-(4-(7-((3-((2,6-dimethylphenyl)amino)-1-methyl-1H-pyrazolo[3,4-d]pyrimidin-6-yl)amino)-1,2,3,4-tetrahydroisoquinoline-2-carbonothioyl)piperidin-1-yl)-2-(2,6-dioxopiperidin-3-yl)-6-fluoroisoindoline-1,3-dione], the half-maximal degradation concentration (DC50) was 0.1 to 10 nM.

Consider `Cc1cccc(C)c1Nc1nn(C)c2nc(Nc3ccc4c(c3)CN(C(=S)C3CCN(C(=O)C5CCN(c6ccc7c(c6)C(=O)N(C6CCC(=O)NC6=O)C7=O)CC5)CC3)CC4)ncc12` (stereo not shown) [Compound 234, 5-(4-(4-(7-((3-((2,6-dimethylphenyl)amino)-1-methyl-1H-pyrazolo[3,4-d]pyrimidin-6-yl)amino)-1,2,3,4-tetrahydroisoquinoline-2-carbonothioyl)piperidine-1-carbonyl)piperidin-1-yl)-2-(2,6-dioxopiperidin-3-yl)isoindoline-1,3-dione], for which the half-maximal degradation concentration (DC50) was in the range of 0.1 to 10 nM.

Regarding `Cc1cccc(C)c1Nc1nn(C)c2nc(Nc3ccc4c(c3)CN(C(=S)C3CCN(C(=O)CNc5ccc6c(c5)C(=O)N(C5CCC(=O)NC5=O)C6=O)CC3)CC4)ncc12` (stereo not shown) [Compound 235, 5-((2-(4-(7-((3-((2,6-dimethylphenyl)amino)-1-methyl-1H-pyrazolo[3,4-d]pyrimidin-6-yl)amino)-1,2,3,4-tetrahydroisoquinoline-2-carbonothioyl)piperidin-1-yl)-2-oxoethyl)amino)-2-(2,6-dioxopiperidin-3-yl)isoindoline-1,3-dione], the DC50 fell in the range of 0.1 to 10 nM.

As for `Cc1cccc(C)c1Nc1nn(C)c2nc(Nc3ccc4c(c3)CN(C(=S)C3CCN(C(=O)COc5ccc6c(c5)C(=O)N(C5CCC(=O)NC5=O)C6=O)CC3)CC4)ncc12` (stereo not shown) [Compound 236, 5-(2-(4-(7-((3-((2,6-dimethylphenyl)amino)-1-methyl-1H-pyrazolo[3,4-d]pyrimidin-6-yl)amino)-1,2,3,4-tetrahydroisoquinoline-2-carbonothioyl)piperidin-1-yl)-2-oxoethoxy)-2-(2,6-dioxopiperidin-3-yl)isoindoline-1,3-dione], the DC50 is 0.1 to 10 nM.
